These results are taken from US9254248B2, “Inhibitor of odor caused by sotolone” (Kao Corporaton, priority 2013, dated 2016).

Test [1] deals with T1, olfactory receptor OR8D1 (Homo sapiens, UniProt Q8WZ84).
T1 construct: expressed in transfected cells; host or cells: HEK293
T1 sequence (Q8WZ84 1-308): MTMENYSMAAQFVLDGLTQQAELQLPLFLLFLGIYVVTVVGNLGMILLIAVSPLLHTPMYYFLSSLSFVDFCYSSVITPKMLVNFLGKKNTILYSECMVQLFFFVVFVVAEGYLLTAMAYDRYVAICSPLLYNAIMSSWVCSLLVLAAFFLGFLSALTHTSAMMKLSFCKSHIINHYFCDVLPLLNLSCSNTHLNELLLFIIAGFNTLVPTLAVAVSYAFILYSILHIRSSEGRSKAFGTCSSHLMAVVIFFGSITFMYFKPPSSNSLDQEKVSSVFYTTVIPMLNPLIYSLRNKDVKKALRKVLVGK
The experiment in a line: Antagonistic activity against the response of OR8D1 to sotolone (luciferase assay, rate of inhibition). Format: cell-based. Conditions: sotolone 100 μM and test substance 100 μM, OR8D1-expressing HEK293 cells. The procedure: 228 types of test substances were examined for their antagonistic activity against the response of the olfactory receptor OR8D1 to sotolone.
Sotolone (100 μM) and each test substance (100 μM) were added to HEK293 cells allowed to express the olfactory receptor OR8D1 by the same procedures as in Example 2. The response of the olfactory receptor was measured to evaluate change in receptor response caused by the addition of the test substance.
The rate of inhibition of the receptor response by the test substance was calculated as follows: firefly luciferase-derived luminescence intensity (Y) in the olfactory receptor OR8D1-expressing cells without sotolone stimulation was subtracted from firefly luciferase-derived luminescence intensity (X) induced by stimulation with sotolone alone to determine receptor activity (X−Y) based on the stimulation with sotolone alone. Likewise, the luminescence intensity (Y) in the cells without sotolone stimulation was subtracted from luminescence intensity (Z) induced by stimulation with the mixture of sotolone and the test substance to determine receptor activity (Z−Y) in the presence of the test substance. The rate of reduction in the receptor activity (Z−Y) in the presence of the test substance with respect to the receptor activity (X−Y) based on the stimulation with sotolone alone was calculated according to an expression shown below to determine the rate of inhibition of the receptor response by the test substance. In this assay, a plurality of independent duplicate experiments was performed. An average of the experiments in each run was obtained. Rate of inhibition (%)={1−(Z−Y)/(X−Y)}×100

Test [2] relates to the other olfactory receptors (400 types of human olfactory receptors except OR8D1). The experiment in a line: Luciferase reporter gene assay of 400 types of human olfactory receptors, response to sotolone. Format: cell-based. The following applies: sotolone 1 mM, HEK293 cells expressing each receptor. From the text:
(§1) On the basis of sequence information registered in GenBank, each human olfactory receptor gene was cloned by PCR with Human Genomic DNA Female (G1521: Promega Corp.) as a template. Each gene thus amplified by PCR was inserted into a pENTR vector (Invitrogen Corp.) according to the manual. A NotI-AscI site present on the pENTR vector r was recombined into a NotI-AscI site prepared downstream of Flag-Rho tag sequence on a pME18S vector.
(§2) A gene (GenBank GI: 50234917) encoding a human receptor transport protein, RTP1S was inserted into the EcoRI-XhoI site of the pME18S vector.
(§3) HEK293 cells expressing each of 400 types of human olfactory receptors were prepared. […]
(§4) The olfactory receptors expressed on the HEK293 cells are conjugated with intracellular Gas to activate adenylate cyclase, thereby increasing intracellular cAMP levels. In this study, their responses to sotolone were measured using luciferase reporter gene assay which involved monitoring increase in intracellular cAMP level as luminescence intensity derived from a firefly luciferase gene (fluc2P-CRE-hygro). […]
(§5) A medium was removed from the cultures prepared in the preceding paragraph 3). […] The luciferase activity was measured using Dual-Glo™ luciferase assay system (Promega Corp.) according to the instruction manual of the product. […]
For orientation: In a reporter assay the amount or activity of a reporter protein is the signal.

Test [3] concerns the target T1, olfactory receptor OR8D1. Conditions: Non-Patent Document 5; cited from earlier work.
Test [4] concerns the target T1, olfactory receptor OR8D1. Put plainly: Luciferase reporter gene assay (cAMP) of olfactory receptor response to sotolone in HEK293 cells. Format: cell-based.
Text: as §1, §2, §3, §4, §5

As a reminder, the inhibition is the drop in the measured response relative to a control, in per cent. Read a high inhibition as strong suppression.

SMILES strings stand for the structures.

As for `CC(=O)c1cc2c(cc1C)C(C)(C)C(C)CC2(C)C` [Tonalid(R), 1-(5,6,7,8-tetrahydro-3,5,5,6,8,8-hexamethyl-2-naphthalenyl)-ethanone], at olfactory receptor OR8D1 [1], the inhibition at 100 µM was not below 50%. In turn, `CC1C/C=C/CCCCCCCCCC(=O)C1` [Muscenone(R) Delta, (5E)-3-methylcyclopentadec-5-en-1-one] displayed an inhibition at 100 µM against olfactory receptor OR8D1 [1] not below 50%. Still for that read-out and setting: next, `CC(C)=CCCC(C)=CC=O` [Citral, citral]: not below 50%. Still for that read-out and setting: the same measure for `CC(=O)C1=C(C)C2CC3(C1)C(C)CCC3C2(C)C` (stereo not drawn) [acetylcedrene, 1-(2,3,4,7,8,8a-hexahydro-3,6,8,8-tetramethyl-1H-3a,7-methanoazulen-5-yl)-ethanone]: not below 75%. As for `C[C@@H]1CCCCCCCCCCCCC(=O)C1` [Muscone, muscone], the “rate of inhibition of the response of OR8D1 to sotolone” value on olfactory receptor OR8D1 [1] was 40% or more rate of. In the case of `CC(C)(C)c1ccc(CCC=O)cc1` [bourgeonal, 3-(4-tert-butylphenyl)propanal], on olfactory receptor OR8D1 [1], the inhibition at 100 µM was not below 50%. Turning to `CC1=C(O)C(=O)OC1C` (stereo not drawn) [sotolone, 3-Hydroxy-4,5-dimethyl-2(5H)-furanone], the “response of the other olfactory receptors to sotolone” value in test [2] was “did not respond”. Further, the “response of olfactory receptor OR8D1 induced by sotolone (reported)” value at olfactory receptor OR8D1 [3] was “induces the response”. The “concentration dependence of the response of OR8D1 to sotolone” value at olfactory receptor OR8D1 [4] (sotolone 0, 3, 10, 30, 100, 300, 1000 and 3000 μM, HEK293 cells with human RTP1S) is “concentration-dependent response”. The “response of olfactory receptor OR8D1 to sotolone” value at olfactory receptor OR8D1 [4] (sotolone 1 mM, HEK293 cells expressing the receptor, 2.5 hours, fold increase of luminescence) is recorded as “exhibited a response”. In turn, `CCCCCC(C=O)=Cc1ccccc1` [amylcinnamic aldehyde, 2-benzylideneheptanal] registered an inhibition at 100 µM on olfactory receptor OR8D1 [1] not below 50%. The same measure, in the same setting: next, `CC(=O)C1(C)CC2=C(CCCC2(C)C)CC1C` (stereo not drawn) [Iso E Super, 7-acetyl-1,2,3,4,5,6,7,8-octahydro-1,1,6,7-tetramethyl-naphthalene]: not below 50%.
